Assay results reported in article PMC6441019, “Prospective discovery of small molecule enhancers of an E3 ligase-substrate interaction” (Nature Communications, 2019).

Tests used:
[1] = target: T1, pSer33/S37A β-catenin peptide binding to β-TrCP (Homo sapiens, UniProt P35222+Q9Y297, S37A); test: TR-FRET peptide binding and cooperativity assay, pSer33/S37A peptide
T1 construct: titrating BODIPY-FL-labeled β-catenin peptides (residues 17-48) against 300 pM β-TrCP; 6xHis-SMT3 (N, cleaved yes); made in house; host or cells: E. coli (co-expressed with BirA)
T1 sequence (Q9Y297 1-569 isoform Q9Y297-2, stated change not applied): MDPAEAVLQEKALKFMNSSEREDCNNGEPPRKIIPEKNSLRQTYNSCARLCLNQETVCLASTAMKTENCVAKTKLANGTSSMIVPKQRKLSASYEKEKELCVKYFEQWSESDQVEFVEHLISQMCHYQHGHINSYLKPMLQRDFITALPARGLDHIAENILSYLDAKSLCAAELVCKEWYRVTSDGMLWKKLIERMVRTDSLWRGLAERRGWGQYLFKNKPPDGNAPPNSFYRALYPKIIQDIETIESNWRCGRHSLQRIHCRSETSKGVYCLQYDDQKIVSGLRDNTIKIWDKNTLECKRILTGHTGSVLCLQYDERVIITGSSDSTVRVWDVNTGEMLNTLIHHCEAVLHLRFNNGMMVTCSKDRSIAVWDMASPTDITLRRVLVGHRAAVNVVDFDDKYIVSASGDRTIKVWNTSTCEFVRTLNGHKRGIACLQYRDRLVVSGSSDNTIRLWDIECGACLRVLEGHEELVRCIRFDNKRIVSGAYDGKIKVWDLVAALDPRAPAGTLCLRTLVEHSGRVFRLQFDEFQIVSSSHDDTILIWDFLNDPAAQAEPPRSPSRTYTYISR
T1 sequence (P63208 whole entry partner, the tested form may be a part): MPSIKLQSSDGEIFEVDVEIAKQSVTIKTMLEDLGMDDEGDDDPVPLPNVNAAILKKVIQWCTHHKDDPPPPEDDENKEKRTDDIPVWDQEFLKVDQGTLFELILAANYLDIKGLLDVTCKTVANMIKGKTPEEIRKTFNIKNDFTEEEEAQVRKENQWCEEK
T1 sequence (P35222 17-48 S37A limits assumed): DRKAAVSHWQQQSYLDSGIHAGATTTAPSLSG
Protocol: Compounds were incubated in a 20 μl reaction volume with 300 pM biotinylated β-TrCP/Skp1 preincubated with 1.2 nM terbium-coupled streptavidin (Cisbio) and BODIPY-FL labeled β-catenin peptides (see figure legends for peptide details) in a white 384-well microplate (Perkin Elmer ProxiPlate), using a PBS buffer containing 0.01% Triton X-100 and 2 mM DTT with 2% final DMSO. […] Following 1-h incubation, plates were read for TR-FRET signal after excitation at 320 nm and read at 520 and 620 nm using an EnVision plate reader (Perkin Elmer). TR-FRET signal was calculated using a 520/620 nm ratio. Binding and enhancement data were fit to a standard Hill equation (Y = Bmin + (Bmax − Bmin)(X^h)/(X^h + EC50^h)) in Prism (GraphPad). Errors are standard error of the fit.

[2] = target: T2, pSer33/S37A β-catenin peptide ubiquitylation by SCFβ-TrCP (Homo sapiens, UniProt P35222+Q9Y297, S37A); test: In vitro ubiquitylation of pSer33/S37A β-catenin peptide; format: biochemical; details: forms long ubiquitin chains
T2 construct: fluorescently-labeled β-catenin peptide (residues 17–60; as indicated) was ubiquitylated; 6xHis-SMT3 (N, cleaved yes); made in house; host or cells: E. coli (β-TrCP1/Skp1); E. coli or SF9 (Cul1-Rbx1)
T2 sequence (Q9Y297 1-569 isoform Q9Y297-2, stated change not applied): as the sequence (Q9Y297 1-569 isoform Q9Y297-2, stated change not applied) above
T2 sequence (P63208 whole entry partner, the tested form may be a part): as the sequence (P63208 whole entry partner, the tested form may be a part) above
T2 sequence (Q13616 whole entry partner, the tested form may be a part): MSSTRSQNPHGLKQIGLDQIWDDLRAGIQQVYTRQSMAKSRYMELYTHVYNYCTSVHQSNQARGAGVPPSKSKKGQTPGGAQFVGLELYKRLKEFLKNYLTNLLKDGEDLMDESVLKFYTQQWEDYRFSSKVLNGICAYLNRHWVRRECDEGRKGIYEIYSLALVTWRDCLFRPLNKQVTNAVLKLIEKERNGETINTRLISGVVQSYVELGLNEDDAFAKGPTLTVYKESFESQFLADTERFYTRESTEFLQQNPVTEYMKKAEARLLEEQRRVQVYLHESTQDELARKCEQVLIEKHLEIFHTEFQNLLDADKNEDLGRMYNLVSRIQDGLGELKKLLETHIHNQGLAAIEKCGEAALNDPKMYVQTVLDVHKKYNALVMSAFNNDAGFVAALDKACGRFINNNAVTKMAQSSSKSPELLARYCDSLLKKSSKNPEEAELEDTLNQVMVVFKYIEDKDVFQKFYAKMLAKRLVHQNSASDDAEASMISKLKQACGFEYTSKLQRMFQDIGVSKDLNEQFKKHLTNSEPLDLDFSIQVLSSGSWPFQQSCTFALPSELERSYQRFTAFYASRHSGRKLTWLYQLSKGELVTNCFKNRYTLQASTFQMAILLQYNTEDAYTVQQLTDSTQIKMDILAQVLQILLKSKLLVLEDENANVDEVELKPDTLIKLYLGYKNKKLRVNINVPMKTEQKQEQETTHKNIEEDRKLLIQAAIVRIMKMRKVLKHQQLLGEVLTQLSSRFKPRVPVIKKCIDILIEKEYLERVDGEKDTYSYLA
T2 sequence (P62877 whole entry partner, the tested form may be a part): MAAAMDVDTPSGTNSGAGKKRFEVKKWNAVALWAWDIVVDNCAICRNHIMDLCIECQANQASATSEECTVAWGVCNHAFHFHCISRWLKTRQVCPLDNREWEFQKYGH
T2 sequence (Q15843 1-76 partner limits assumed): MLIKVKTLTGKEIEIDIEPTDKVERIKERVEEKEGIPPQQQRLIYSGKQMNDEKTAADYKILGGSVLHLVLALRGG
T2 sequence (P35222 17-60 S37A limits assumed): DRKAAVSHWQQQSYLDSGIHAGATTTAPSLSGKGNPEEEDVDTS
Protocol: (§1) Four micromolar of fluorescently-labeled β-catenin peptide (residues 17–60) were ubiquitylated in a buffer containing 25 mM Tris Cl (pH 7.5), 50 mM NaCl, 5 mM MgCl2, 2 mM ATP, and 1 mM DTT at room temperature in the presence of 62.5 μM Ubiquitin, 125 nM Ube1, 1.75 μM Cdc34A, and 100 nM neddylated SCF^β-TrCP in the presence or absence of compound (as indicated). Typically, individual reaction mixes with either Ubiquitin, Ube1 and Cdc34A or β-catenin, SCF^β-TrCP and compound were preincubated and subsequently mixed to initiate β-catenin ubiquitylation. Reactions were quenched by SDS loading buffer, resolved by SDS-PAGE and imaged for fluorescence. For full length β-catenin protein ubiquitylation 400 nM β-catenin and 400 nM SCF^β-TrCP were used instead.

[3] = target: T3, full-length Ser33/S37A β-catenin protein ubiquitylation by SCFβ-TrCP (Homo sapiens, UniProt P35222+Q9Y297, S37A); test: In vitro ubiquitylation of full-length Ser33/S37A β-catenin protein; format: biochemical
T3 construct: 400 nM purified full-length S37A mutant β-catenin protein was ubiquitylated; 6xHis-SMT3 (N, cleaved yes); host or cells: HEK293T (β-catenin); E. coli (β-TrCP1/Skp1); E. coli or SF9 (Cul1-Rbx1)
T3 sequence (Q9Y297 1-569 isoform Q9Y297-2, stated change not applied): as the sequence (Q9Y297 1-569 isoform Q9Y297-2, stated change not applied) above
T3 sequence (P63208 whole entry partner): as the sequence (P63208 whole entry partner, the tested form may be a part) above
T3 sequence (Q13616 whole entry partner): as the sequence (Q13616 whole entry partner, the tested form may be a part) above
T3 sequence (P62877 whole entry partner): as the sequence (P62877 whole entry partner, the tested form may be a part) above
T3 sequence (Q15843 1-76 partner limits assumed): as the sequence (Q15843 1-76 partner limits assumed) above
T3 sequence (P35222 whole entry S37A): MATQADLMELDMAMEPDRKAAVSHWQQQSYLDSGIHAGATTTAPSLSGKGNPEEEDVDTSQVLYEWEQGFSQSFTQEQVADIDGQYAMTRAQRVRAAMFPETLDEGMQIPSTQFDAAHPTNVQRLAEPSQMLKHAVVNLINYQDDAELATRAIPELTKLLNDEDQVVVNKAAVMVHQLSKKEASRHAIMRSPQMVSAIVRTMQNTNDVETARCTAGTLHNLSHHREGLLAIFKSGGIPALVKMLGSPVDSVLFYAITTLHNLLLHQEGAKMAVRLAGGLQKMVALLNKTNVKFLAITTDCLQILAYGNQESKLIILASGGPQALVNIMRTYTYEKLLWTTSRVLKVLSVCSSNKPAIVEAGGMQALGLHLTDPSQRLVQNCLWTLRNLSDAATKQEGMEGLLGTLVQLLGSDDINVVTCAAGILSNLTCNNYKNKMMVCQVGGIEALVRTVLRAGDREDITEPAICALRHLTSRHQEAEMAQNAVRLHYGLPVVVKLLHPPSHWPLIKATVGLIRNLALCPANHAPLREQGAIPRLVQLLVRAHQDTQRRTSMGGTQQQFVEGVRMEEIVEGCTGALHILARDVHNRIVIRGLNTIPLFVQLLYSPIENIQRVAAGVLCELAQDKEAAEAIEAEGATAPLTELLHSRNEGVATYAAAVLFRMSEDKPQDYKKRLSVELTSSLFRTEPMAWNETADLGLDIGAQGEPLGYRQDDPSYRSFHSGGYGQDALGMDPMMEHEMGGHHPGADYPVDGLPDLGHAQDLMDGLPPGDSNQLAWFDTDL
Protocol: as §1

[4] = target: T4, S33E/S37A mutant β-catenin (Homo sapiens, UniProt P35222+Q9Y297, S33E/S37A); test: β-catenin degradation in HEK293T cells stably expressing S33E/S37A β-catenin; format: cell-based; details: HEK293T stable line, 6 h, western
T4 construct: Full-length β-catenin (Myc/FLAG-tagged; Origene); expressed in transfected cells
T4 sequence (P35222 whole entry S33E/S37A): as the sequence (P35222 whole entry S37A) above, with S33E counted along it
T4 sequence (Q9Y297 whole entry, stated change not applied): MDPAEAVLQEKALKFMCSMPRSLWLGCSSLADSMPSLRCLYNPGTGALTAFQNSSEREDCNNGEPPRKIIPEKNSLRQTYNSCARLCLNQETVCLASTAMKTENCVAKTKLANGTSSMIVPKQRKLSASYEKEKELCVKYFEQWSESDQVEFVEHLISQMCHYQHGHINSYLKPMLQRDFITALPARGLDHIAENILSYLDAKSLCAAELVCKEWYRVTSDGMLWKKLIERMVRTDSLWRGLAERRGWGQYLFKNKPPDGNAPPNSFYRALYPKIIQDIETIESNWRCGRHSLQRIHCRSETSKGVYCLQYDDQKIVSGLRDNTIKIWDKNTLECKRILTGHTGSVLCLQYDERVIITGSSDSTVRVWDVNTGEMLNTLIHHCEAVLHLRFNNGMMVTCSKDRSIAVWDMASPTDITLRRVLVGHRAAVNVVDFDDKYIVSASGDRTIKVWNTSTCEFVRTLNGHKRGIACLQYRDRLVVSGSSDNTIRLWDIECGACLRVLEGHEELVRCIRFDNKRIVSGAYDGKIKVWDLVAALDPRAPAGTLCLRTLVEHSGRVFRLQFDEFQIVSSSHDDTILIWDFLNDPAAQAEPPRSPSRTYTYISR
T4 sequence (P63208 whole entry partner): as the sequence (P63208 whole entry partner, the tested form may be a part) above
T4 sequence (Q13616 whole entry partner): as the sequence (Q13616 whole entry partner, the tested form may be a part) above
T4 sequence (P62877 whole entry partner): as the sequence (P62877 whole entry partner, the tested form may be a part) above
T4 sequence (Q15843 1-76 partner limits assumed): as the sequence (Q15843 1-76 partner limits assumed) above
Protocol: HEK293T cells were plated in a 10 cm dish in regular growth media (DMEM + 10% FBS) and allowed to adhere to the plate overnight. The following day, cells were transfected with S33E/S37 β-catenin using FuGeneHD transfection reagent. Transfected cells were then selected with media containing 700 μg/ml Geneticin. A pooled population of selected cells were used for all described experiments.
HEK293T cells expressing S33E/S37A β-catenin were plated in six-well plates at a density of 9 × 10^5 cells/well. The following day, cells were incubated with compounds diluted in regular growth media to the appropriate concentration. The final concentration of DMSO for all cell treatments was kept at 0.5% or less. Cell treatments with the Nedd8 inhibitor (MLN4924) and the proteasome inhibitor (MG132) were performed at a final concentration of 5 μM and 10 μM respectively. Cycloheximide treatment was performed at a final concentration of 100 μg/ml.

## N#Cc1cccc2c1CN(C(=O)c1c(Sc3c(Cl)cccc3Cl)cc(C(F)(F)F)[nH]c1=O)C2 [NRX-252114]
[1]
  cooperativity of peptide binding to β-TrCP: > 1500 fold
[2]
  enhancement of ubiquitylation of pSer33/S37A β-catenin peptide: further enhances
[3]
  ubiquitylation of full-length Ser33/S37A β-catenin, comparison of enhancers: higher degree of ubiquitylation than NRX-103094
[3]; 40 μM compound
  level of ubiquitylation of full-length Ser33/S37A β-catenin: approaches that of WT full-length protein
[4]
  concentration at which degradation of S33E/S37A mutant β-catenin starts: ~ 50 μM
